Data taken from patent US8927583B2, “Pesticidal composition comprising a 2-pyrdilmethylbenzamide derivative and an insecticide compound” (Bayer Cropscience AG, priority 2006, dated 2015).

Legend:
Assay type in all cases: in vivo
Plutella xylostella = Plutella xylostella test (cabbage leaf dip, larvae mortality); conditions: mortality after 3 d, cabbage leaves
Description: To produce a suitable preparation of active compound, 1 part by weight of active compound is mixed with the stated amount of solvent and emulsifier, and the concentrate is diluted with emulsifier-containing water to the desired concentration. Cabbage leaves (Brassica oleracea) are treated by being dipped into the preparation of the active compound of the desired concentration and are infested with larvae of the diamond back moth (Plutella xylostella) as long as the leaves are still moist. After the specified period of time, the mortality in % is determined. 100% means that all the caterpillars have been killed; 0% means that none of the caterpillars have been killed.

Spodoptera exigua = Spodoptera exigua test (cabbage leaf dip, larvae mortality); conditions: 500 ppm, mortality after 3 d, cabbage leaves
Description: (§1) To produce a suitable preparation of active compound, 1 part by weight of active compound is mixed with the stated amount of solvent and emulsifier, and the concentrate is diluted with emulsifier-containing water to the desired concentration.
Cabbage leaves (Brassica oleracea) are treated by being dipped into the preparation of the active compound of the desired concentration and are infested with larvae of the beet army worm (Spodoptera exigua) as long as the leaves are still moist.
(§2) After the specified period of time, the mortality in % is determined. 100% means that all the caterpillars have been killed; 0% means that none of the caterpillars have been killed.

Spodoptera frugiperda = Spodoptera frugiperda test (cabbage leaf dip, larvae mortality); conditions: cabbage leaves; for Efficacy in % after 6 d: mortality after 6 d; for Efficacy in % after 4 d: mortality after 4 d
Description: as §1
Cabbage leaves (Brassica oleracea) are treated by being dipped into the preparation of the active compound of the desired concentration and are infested with larvae of the fall army worm (Spodoptera frugiperda) as long as the leaves are still moist.
as §2

With `CN/C(=N\[N+](=O)[O-])NCc1cnc(Cl)s1` [Clothianidin] as the molecule, how does the “Efficacy in % after 3 d” value (Plutella xylostella; 4 ppm) read?
Its value is 0%.

What does the source list for `O=C(NCc1ncc(C(F)(F)F)cc1Cl)c1c(Cl)cccc1Cl` [Fluopicolide, 2,6-dichloro-N-{[3-chloro-5-(trifluoromethyl)-2-pyridinyl]methyl}-benzamide]?
Efficacy in % after 3 d (Spodoptera exigua): 0%; Efficacy in % after 6 d (Spodoptera frugiperda; 200 ppm): 0%; Efficacy in % after 4 d (Spodoptera frugiperda; 500 ppm): 0%; Efficacy in % after 3 d (Plutella xylostella; 200 ppm): 0%

With `O=[N+]([O-])NC1=NCCN1Cc1ccc(Cl)nc1` [Imidacloprid] as the molecule, how does the “Efficacy in % after 3 d” value (Spodoptera exigua) read?
Its value is 40%.

For `N#C/N=C1\SCCN1Cc1ccc(Cl)nc1` [Thiacloprid], which “Efficacy in % after 4 d” value (Spodoptera frugiperda; 20 ppm) is on record?
Its value is 25%.

With `CN1COCN(Cc2cnc(Cl)s2)/C1=N\[N+](=O)[O-]` [Thiamethoxam] as the molecule, how does the “Efficacy in % after 6 d” value (Spodoptera frugiperda; 100 ppm) read?
Its value is 0%.
